The results in this text go back to patent US11814444B2, “Cyclic polypeptides for PCSK9 inhibition” (Ra Pharmaceuticals, Inc., priority 2018, dated 2023).

What all share (type): binding
Test [1] deals with human PCSK9 / human LDLR EGFa domain interaction (Homo sapiens, UniProt Q8NBP7). Put plainly: TR-FRET assay of inhibition of the PCSK9-LDLR protein-protein interaction. The following applies: 20 nM avitag-biotinylated human PCSK9, 20 nM his-tagged human LDLR EGFa domain, 2 hours, room temperature. The essentials:
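Readout is the TR-FRET signal between europium anti-6×His on his-tagged LDLR EGFa domain and Ulight streptavidin on biotinylated PCSK9, both proteins at 20 nM and both detection reagents at 5 nM. Incubation lasted 2 hours at room temperature; compounds were run in dose-response with a 4-parameter fit.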

Test [2] addresses T1, PCSK9 (Homo sapiens, UniProt Q8NBP7). The test is described as follows: PCSK9 Alexa FRET Standard assay (displacement of AlexaFluor647 tagged cyclic peptide Reagent A). The conditions noted are these: 0.5 nM PCSK9, 20 nM AF cyclic peptide Reagent A. Summed up: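 TR-FRET displacement: 0.5 nM biotinylated PCSK9 with 1.25 nM Strep-Eu and 20 nM AlexaFluor-tagged cyclic peptide (final) in 50 mM HEPES pH 7.4, 0.15 M NaCl, 5 mM CaCl2, 0.01% BSA, 0.01% P20, ≥2 h at room temperature. IC50 from sigmoidal fit, converted to Ki via peptide KD; falling Eu counts flagged false positives.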

The target in test [3] is T1, PCSK9. Put plainly: PCSK9 Alexa FRET Plus assay (displacement of AlexaFluor647 tagged cyclic peptide Reagent B). The conditions noted are these: 0.5 nM PCSK9, 960 nM AF cyclic peptide Reagent B. As for the experimental part: A solution containing 1 nM biotinylated PCSK9+2.5 nM Lance Streptavidin Europium (Strep-Eu) was made in 50 mM HEPES pH 7.4, 0.15 M NaCl, 5 mM CaCl2), 0.01% BSA, and 0.01% Surfactant P20. A separate solution containing 1920 nM of the AlexaFluor tagged cyclic peptide was made in the same buffer system. An Echo was used to transfer 0.075 ul of compound plus 0.675 ul of DMSO to each well of an assay plate followed by the addition of 15 ul of PCSK9+Stept-Eu and 15 ul of AF peptide. The final assay volume was 30.750 ul containing 0.5 nM PCSK9, 1.25 nM Strep-Eu, and 960 nM AF cyclic peptide. The reaction was incubated at room temperature for at least two hours prior to fluorescence measurements using an Envision Multilabel Reader. IC50 values were determined by fitting data to a sigmoidal dose-response curve using nonlinear regression. Ki was then calculated from the IC50 and the KD of AF cyclic peptide. Counts (B-counts) of the europium-labeled PCSK9 were followed to observe if compounds were adversely affecting PCSK9. A fall off of the B-counts likely indicated a false positive of inhibition. Data from this procedure was reported as “P=‘numerical value’ (nanomolar)”

Numbered stars: 1 amine (or outer) side, 2 acyl side, 3 side chain; on linkers, the order of the positions; unused ones are H or OH. Bridge positions count the residues as written; N and C are the ends. Square brackets hold non-standard residues; d marks the D form. Peptide text beside a SMILES is read from it. Trp(7-aza) = N[C@@H](Cc1c[nH]c2ncccc12)C(=O)O; X1 = C[C@@](N[*:1])(C(=O)[*:2])c1ccccc1; mXylylene = c1cc(C[*:1])cc(C[*:2])c1; Tle = CC(C)(C)[C@H](N)C(=O)O; αMeV = CC(C)[C@](C)(N)C(=O)O; Thp = NC1(C(=O)O)CCOCC1

T1 sequence (Q8NBP7 153-692): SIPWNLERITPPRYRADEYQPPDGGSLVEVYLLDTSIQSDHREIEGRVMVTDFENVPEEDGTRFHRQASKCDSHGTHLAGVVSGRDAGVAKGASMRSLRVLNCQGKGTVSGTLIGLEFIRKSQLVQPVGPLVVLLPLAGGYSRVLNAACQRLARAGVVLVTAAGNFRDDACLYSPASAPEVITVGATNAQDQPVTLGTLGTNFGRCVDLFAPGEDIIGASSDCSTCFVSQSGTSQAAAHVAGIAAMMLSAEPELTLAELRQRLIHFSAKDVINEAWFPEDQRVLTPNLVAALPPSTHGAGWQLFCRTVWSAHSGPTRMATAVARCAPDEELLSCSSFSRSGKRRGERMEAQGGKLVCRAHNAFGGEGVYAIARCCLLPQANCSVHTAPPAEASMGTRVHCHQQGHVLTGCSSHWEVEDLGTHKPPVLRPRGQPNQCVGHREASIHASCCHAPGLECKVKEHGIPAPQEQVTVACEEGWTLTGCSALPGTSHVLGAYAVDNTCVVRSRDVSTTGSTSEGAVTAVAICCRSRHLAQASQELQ
Chain of human PCSK9 / human LDLR EGFa domain interaction (Q8NBP7 153-692): as above
Chain of human PCSK9 / human LDLR EGFa domain interaction (Q8NBP7 31-152 partner limits assumed): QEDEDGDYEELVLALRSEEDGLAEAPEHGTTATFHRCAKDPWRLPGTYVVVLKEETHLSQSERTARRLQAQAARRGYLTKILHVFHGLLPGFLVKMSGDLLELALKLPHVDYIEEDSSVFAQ

For `CC(=O)N[C@H]1CSCc2cccc(c2)CSC[C@H](C(N)=O)NC(=O)[C@H]([C@@H](C)O)NC(=O)[C@](C)(C(C)C)NC(=O)[C@H](Cc2ccc(O)cc2)NC(=O)[C@H](C)NC(=O)C2(CCOCC2)NC(=O)[C@H](Cc2c[nH]c3ncccc23)NC(=O)[C@H]([C@@H](C)O)NC(=O)[C@@H]2CCCN2C(=O)[C@H](Cc2ccc(O)cc2)NC(=O)[C@H](C(C)(C)C)NC1=O` [Compound 187] (Ac-C[Tle]YPT[Trp(7-aza)][Thp]AY[αMeV]T[dC]-NH2; linker 1-12 via mXylylene), the IC50 in test [1], in test [2] and in test [3] was 1 to 100 nM throughout.

For `CC(=O)N[C@H]1CSCc2cccc(c2)CSC[C@H](C(N)=O)NC(=O)[C@H]([C@@H](C)O)NC(=O)[C@](C)(C(C)C)NC(=O)[C@H](Cc2ccc(O)cc2)NC(=O)[C@H](C)NC(=O)[C@](C)(c2ccccc2)NC(=O)[C@H](Cc2c[nH]c3ncccc23)NC(=O)[C@H]([C@@H](C)O)NC(=O)[C@@H]2CCCN2C(=O)[C@H](Cc2ccc(O)cc2)NC(=O)[C@H](C(C)(C)C)NC1=O` [Compound 190] (Ac-C[Tle]YPT[Trp(7-aza)][X1]AY[αMeV]T[dC]-NH2; linker 1-12 via mXylylene), the IC50 in test [1] was in the range of 21000 to 50000 nM; in test [2], 1000 to 21000 nM; in test [3], 250 to 2000 nM.
